Test: In vitro release kinetics: cleavage rate of the reversible bond in aqueous buffer
Format: physicochemical
Conditions: aqueous buffer (sodium phosphate with acetonitrile), pH 7.4, 37° C., 48 mM sodium phosphate, 20% acetonitrile, disappearance of conjugate by LCMS (UV), read-out: t1/2 (pH 7.4) (converted)
Method: The cleavage rate of the reversible bond from conjugates 6, 10 and 11 was monitored at pH 7.4 and 37° C. in aqueous buffer (pH 7.4 48 mM sodium phosphate, 20% acetonitrile). The disappearance of the conjugate was determined by LCMS (UV detection) and fitted with curve fitting software to obtain the half-life of the release.

SMILES	half-life [h]
CCOC(c1ccc(CC(=O)O)cc1)n1cnc2ccccc21 (stereo not drawn) [Compound 10]	10
CCOC(c1ccccc1)n1cnc2ccccc21 (stereo not drawn) [Compound 6]	192
CCOC(c1ccccc1)n1ncc2ccccc21 (stereo not drawn) [Compound 11]	137

Source: US20220305129A1, “CONJUGATES OF HETEROAROMATIC NITROGEN-COMPRISING COMPOUNDS” (Ascendis Pharma A/S, priority 2019, published 2022)
